Numbers after ± are expanded uncertainties.
Conditions: 100 kPa, Liquid; for speed of sound: Single path-length method; for mass density: Vibrating tube method

CCCO [propan-1-ol]
Conditions	mass density [kg/m3]	speed of sound [m/s]
288.15 K	807.834 ± 0.15	1242.3 ± 0.42
298.15 K	799.597 ± 0.15	1205.3 ± 0.41
308.15 K	791.399 ± 0.16	1170.4 ± 0.39
318.15 K	783.121 ± 0.16	1137.3 ± 0.39

From the NIST ThermoML archive (doi:10.1021/acs.jced.7b00581)
